Patent publication US20140243322A1, “BIVALENT BROMODOMAIN LIGANDS, AND METHODS OF USING SAME” (Coferon, Inc., priority 2011, published 2014)
pEC50: −log10 of the molar value.

What was measured:
MV4-11 cells = experiment: Inhibition of MV4-11 cell proliferation (Cell-Titer Glo); format: cell-based; conditions: Homo sapiens, 72 hours of growth, read-out: GI50 range
Procedure: Inhibition of MV4-11 Cell Proliferation.
MV4-11 cells (5000 cells in 50 μl volumes) in growth medium containing 10% FBS and 1% Pen/Strep were plated and grown overnight in 96 well plates and treated the next day with 3-fold dilutions of test compounds or with DMSO vehicle. After 72 hours of growth, 30 ul of Cell-Titer Glo reagent (Promega) was added to the wells and the plates incubated for 30 minutes. Luminescence was measured on a Spectramax M5 plate reader and GI50 values were calculated for each test compound.

Myc mRNA = experiment: Inhibition of Myc expression (Myc mRNA) in MV4-11 cells; format: cell-based; conditions: Homo sapiens, 4 hours of treatment, read-out: EC50 range, Myc mRNA normalized to GAPDH mRNA
From the text: Inhibition of Myc Expression.

| SMILES | GI50 (MV4-11 cells) | pEC50 (Myc mRNA) |
| --- | --- | --- |
| CCNC(=O)C[C@@H]1N=C(c2ccc(Cl)cc2)c2cc(OCCNC(=O)C[C@@H]3N=C(c4ccc(Cl)cc4)c4cc(OC)ccc4-n4c(C)nnc43)ccc2-n2c(C)nnc21 [BRD-B-01, N-(2-(((S)-6-(4-chlorophenyl)-4-(2-(ethylamino)-2-oxoethyl)-1-methyl-4H-benzo[f][1,2,4]triazolo[4,3-a][1,4]diazepin-8-yl)oxy)ethyl)-2-((S)-6-(4-chlorophenyl)-8-methoxy-1-methyl-4H-benzo[f][1,2,4]triazolo[4,3-a][1,4]diazepin-4-yl)acetamide] | 0.1 to 30 µM | – |
| CCNC(=O)C[C@@H]1N=C(c2ccc(Cl)cc2)c2cc(OCCOCCOCCNC(=O)C[C@@H]3N=C(c4ccc(Cl)cc4)c4cc(OC)ccc4-n4c(C)nnc43)ccc2-n2c(C)nnc21 [BRD-B-04, N-(2-(2-(2-(((S)-6-(4-chlorophenyl)-4-(2-(ethylamino)-2-oxoethyl)-1-methyl-4H-benzo[f][1,2,4]triazolo[4,3-a][1,4]diazepin-8-yl)oxy)ethoxy)ethoxy)ethyl)-2-((S)-6-(4-chlorophenyl)-8-methoxy-1-methyl-4H-benzo[f][1,2,4]triazolo[4,3-a][1,4]diazepin-4-yl)acetamide] | 0.0001 to 0.03 µM | 7.52 to 10.00 |
| CCNC(=O)C[C@@H]1N=C(c2ccc(Cl)cc2)c2cc(OCCOCCOCCOCCNC(=O)C[C@@H]3N=C(c4ccc(Cl)cc4)c4cc(OC)ccc4-n4c(C)nnc43)ccc2-n2c(C)nnc21 [BRD-B-05, N-(2-(2-(2-(2-(((S)-6-(4-chlorophenyl)-4-(2-(ethylamino)-2-oxoethyl)-1-methyl-4H-benzo[f][1,2,4]triazolo[4,3-a][1,4]diazepin-8-yl)oxy)ethoxy)ethoxy)ethoxy)ethyl)-2-((S)-6-(4-chlorophenyl)-8-methoxy-1-methyl-4H-benzo[f][1,2,4]triazolo[4,3-a][1,4]diazepin-4-yl)acetamide] | 0.0001 to 0.03 µM | 7.00 to 7.52 |
| COc1ccc2c(c1)C(c1ccc(Cl)cc1)=N[C@@H](CC(=O)NCCNC(=O)NCCNC(=O)C[C@@H]1N=C(c3ccc(Cl)cc3)c3cc(OC)ccc3-n3c(C)nnc31)c1nnc(C)n1-2 [BRD-B-06, (S)—N,N′-((carbonylbis(azanediyl))bis(ethane-2,1-diyl))bis(2-((S)-6-(4-chlorophenyl)-8-methoxy-1-methyl-4H-benzo[f][1,2,4]triazolo[4,3-a][1,4]diazepin-4-yl)acetamide)] | 0.1 to 30 µM | 4.52 to 7.00 |
| COc1ccc2c(c1)C(c1ccc(Cl)cc1)=N[C@@H](CC(=O)NCCNC(=O)CNC(=O)C[C@@H]1N=C(c3ccc(Cl)cc3)c3cc(OC)ccc3-n3c(C)nnc31)c1nnc(C)n1-2 [BRD-B-07, 2-((S)-6-(4-chlorophenyl)-8-methoxy-1-methyl-4H-benzo[f][1,2,4]triazolo[4,3-a][1,4]diazepin-4-yl)-N-(2-(2-(2-((S)-6-(4-chlorophenyl)-8-methoxy-1-methyl-4H-benzo[f][1,2,4]triazolo[4,3-a][1,4]diazepin-4-yl)acetamido)acetamido)ethyl)acetamide] | 0.1 to 30 µM | 4.52 to 7.00 |
| COc1ccc2c(c1)C(c1ccc(Cl)cc1)=N[C@@H](CC(=O)NCCNC(=O)CNC(=O)CNC(=O)C[C@@H]1N=C(c3ccc(Cl)cc3)c3cc(OC)ccc3-n3c(C)nnc31)c1nnc(C)n1-2 [BRD-B-08, 2-((S)-6-(4-chlorophenyl)-8-methoxy-1-methyl-4H-benzo[f][1,2,4]triazolo[4,3-a][1,4]diazepin-4-yl)-N-(2-(2-(2-(2-((S)-6-(4-chlorophenyl)-8-methoxy-1-methyl-4H-benzo[f][1,2,4]triazolo[4,3-a][1,4]diazepin-4-yl)acetamido)acetamido)acetamido)ethyl)acetamide] | 0.1 to 30 µM | 4.52 to 7.00 |
| COc1ccc2c(c1)C(c1ccc(Cl)cc1)=N[C@@H](CC(=O)NCCNC(=O)CNC(=O)NCCNC(=O)C[C@@H]1N=C(c3ccc(Cl)cc3)c3cc(OC)ccc3-n3c(C)nnc31)c1nnc(C)n1-2 [BRD-B-09] | 0.1 to 30 µM | 4.52 to 7.00 |
| COc1ccc2c(c1)C(c1ccc(Cl)cc1)=N[C@@H](CC(=O)NCc1cccc(C3CCN(C(=O)C[C@@H]4N=C(c5ccc(Cl)cc5)c5cc(OC)ccc5-n5c(C)nnc54)CC3)c1)c1nnc(C)n1-2 [BRD-B-10, 2-((S)-6-(4-chlorophenyl)-8-methoxy-1-methyl-4H-benzo[f][1,2,4]triazolo[4,3-a][1,4]diazepin-4-yl)-N-(3-(1-(2-((S)-6-(4-chlorophenyl)-8-methoxy-1-methyl-4H-benzo[f][1,2,4]triazolo[4,3-a][1,4]diazepin-4-yl)acetyl)piperidin-4-yl)benzyl)acetamide] | 0.1 to 30 µM | – |
| COc1ccc2c(c1)C(c1ccc(Cl)cc1)=N[C@@H](CC(=O)NCC(=O)NCCNC(=O)CNC(=O)C[C@@H]1N=C(c3ccc(Cl)cc3)c3cc(OC)ccc3-n3c(C)nnc31)c1nnc(C)n1-2 [BRD-B-11, (S)—N,N′-(ethane-1,2-diyl)bis(2-(2-((S)-6-(4-chlorophenyl)-8-methoxy-1-methyl-4H-benzo[f][1,2,4]triazolo[4,3-a][1,4]diazepin-4-yl)acetamido)acetamide)] | 0.1 to 30 µM | 4.52 to 7.00 |
| CCNC(=O)C[C@@H]1N=C(c2ccc(Cl)cc2)c2cc(OCCOCCOCCOCCOCCNC(=O)C[C@@H]3N=C(c4ccc(Cl)cc4)c4cc(OC)ccc4-n4c(C)nnc43)ccc2-n2c(C)nnc21 [BRD-B-12, N-(14-(((4S)-6-(4-chlorophenyl)-4-(2-(ethylamino)-2-oxoethyl)-1-methyl-4H-benzo[f][1,2,4]triazolo[4,3-a][1,4]diazepin-8-yl)oxy)-3,6,9,12-tetraoxatetradecyl)-2-((4S)-6-(4-chlorophenyl)-8-methoxy-1-methyl-4H-benzo[f][1,2,4]triazolo[4,3-a][1,4]diazepin-4-yl)acetamide] | 0.0001 to 0.03 µM | 7.00 to 7.52 |
| CCNC(=O)C[C@@H]1N=C(c2ccc(Cl)cc2)c2cc(OCCOCCOCCOCCOCCOCCNC(=O)C[C@@H]3N=C(c4ccc(Cl)cc4)c4cc(OC)ccc4-n4c(C)nnc43)ccc2-n2c(C)nnc21 [BRD-B-13, N-(17-(((4S)-6-(4-chlorophenyl)-4-(2-(ethylamino)-2-oxoethyl)-1-methyl-4H-benzo[f][1,2,4]triazolo[4,3-a][1,4]diazepin-8-yl)oxy)-3,6,9,12,15-pentaoxaheptadecyl)-2-((4S)-6-(4-chlorophenyl)-8-methoxy-1-methyl-4H-benzo[f][1,2,4]triazolo[4,3-a][1,4]diazepin-4-yl)acetamide] | 0.0001 to 0.03 µM | 4.52 to 7.00 |
| COc1ccc2c(c1)C(c1ccc(Cl)cc1)=N[C@@H](CC(=O)NCCOCCOCCOCCOCCNC(=O)C[C@@H]1N=C(c3ccc(Cl)cc3)c3cc(OC)ccc3-n3c(C)nnc31)c1nnc(C)n1-2 [BRD-B-16, (S)—N,N′-(3,6,9,12-tetraoxatetradecane-1,14-diyl)bis(2-((S)-6-(4-chlorophenyl)-8-methoxy-1-methyl-4H-benzo[f][1,2,4]triazolo[4,3-a][1,4]diazepin-4-yl)acetamide)] | 0.03 to 0.1 µM | 7.00 to 7.52 |
| COc1ccc2c(c1)C(c1ccc(Cl)cc1)=N[C@@H](CC(=O)NCCOCCOCCOCCOCCOCCNC(=O)C[C@@H]1N=C(c3ccc(Cl)cc3)c3cc(OC)ccc3-n3c(C)nnc31)c1nnc(C)n1-2 [BRD-B-17, (S)—N,N′-(3,6,9,12,15-pentaoxaheptadecane-1,17-diyl)bis(2-((S)-6-(4-chlorophenyl)-8-methoxy-1-methyl-4H-benzo[f][1,2,4]triazolo[4,3-a][1,4]diazepin-4-yl)acetamide)] | 0.03 to 0.1 µM | 4.52 to 7.00 |
| COc1ccc2c(c1)C(c1ccc(Cl)cc1)=N[C@@H](CC(=O)NCCOCCOCCOCCOCCOCCOCCNC(=O)C[C@@H]1N=C(c3ccc(Cl)cc3)c3cc(OC)ccc3-n3c(C)nnc31)c1nnc(C)n1-2 [BRD-B-18, (S)—N,N′-(3,6,9,12,15,18-hexaoxaicosane-1,20-diyl)bis(2-((S)-6-(4-chlorophenyl)-8-methoxy-1-methyl-4H-benzo[f][1,2,4]triazolo[4,3-a][1,4]diazepin-4-yl)acetamide)] | 0.0001 to 0.03 µM | 7.00 to 7.52 |
| COc1ccc2c(c1)C(c1ccc(Cl)cc1)=N[C@@H](CC(=O)NCCOCCOCCOCCOCCOCCOCCOCCNC(=O)C[C@@H]1N=C(c3ccc(Cl)cc3)c3cc(OC)ccc3-n3c(C)nnc31)c1nnc(C)n1-2 [BRD-B-19, (S)—N,N′-(3,6,9,12,15,18,21-heptaoxatricosane-1,23-diyl)bis(2-((S)-6-(4-chlorophenyl)-8-methoxy-1-methyl-4H-benzo[f][1,2,4]triazolo[4,3-a][1,4]diazepin-4-yl)acetamide)] | 0.0001 to 0.03 µM | 4.52 to 7.00 |
| CCNC(=O)C[C@@H]1N=C(c2ccc(Cl)cc2)c2cc(OCCOCCOCCOCCOCCOCCOCCOCCOCCOCCNC(=O)C[C@@H]3N=C(c4ccc(Cl)cc4)c4cc(OC)ccc4-n4c(C)nnc43)ccc2-n2c(C)nnc21 [BRD-B-21, N-(29-(((4S)-6-(4-chlorophenyl)-4-(2-(ethylamino)-2-oxoethyl)-1-methyl-4H-benzo[f][1,2,4]triazolo[4,3-a][1,4]diazepin-8-yl)oxy)-3,6,9,12,15,18,21,24,27-nonaoxanonacosyl)-2-((4S)-6-(4-chlorophenyl)-8-methoxy-1-methyl-4H-benzo[f][1,2,4]triazolo[4,3-a][1,4]diazepin-4-yl)acetamide] | – | 4.52 to 7.00 |
| Cc1ccc(-c2c(C)noc2C)cc1S(=O)(=O)NCCOCCOCCNS(=O)(=O)c1cc(-c2c(C)noc2C)ccc1C [BRD-B-76, N,N′-((ethane-1,2-diylbis(oxy))bis(ethane-2,1-diyl))bis(5-(3,5-dimethylisoxazol-4-yl)-2-methylbenzenesulfonamide)] | – | 4.52 to 7.00 |
